Assay results taken from patent publication US4940730A, “Angiogenesis enhancer” (Takeda Chemical Industries, Ltd., priority 1987, dated 1990).

Legend:
[1] = tested on: cornea; test: Rat cornea test; format: in vivo, Wister rats; details: after two weeks; for elongation of blood vessels: rat cornea
Excerpt: Namely, Wister rats (14-week old, male) were anesthetized, then pockets (about 2×3 mm in size) were provided in the cornea. […] The test samples enveloped were erucamide, lauramide and erucic acid, and, as the control, Elvax®-40 in which nothing was enveloped was used.

[2] = tested on: dorsal air-sack; test: Mouse dorsal air-sack method; format: in vivo, ICR mice; design: key to blood vessel elongation action: +, ++; blood vessel elongation action positive; +, ++; blood vessel elongation action positive; -: blood vessel elongation action negative; details: ten days later; for blood vessel elongation action: 1 mg test sample enveloped in Elvax-40
Experimental: Experimental work was conducted in accordance with the method of Yoshii et al. [Igaku no ayumi, 122 (No. 10), p. 890 (1982)]. More specifically, ICR mice (9-week old, males) were anesthetized, and the hair at the dorsal site was shaved with clippers. The site was sterilized with alcohol, and an injection needle was inserted at the site located at a distance of 1 cm from the tail side. Through the needle, about 20 ml of air was introduced. Then, the air in the air-sack (on the tail side) was drawn out. Test samples enveloped in Elvax®-40 were inserted into both, left and right, sides (at one of the both sides, only Elvax®-40 as the control). The incised site was closed, and, ten days later, the site was incised again and the state of elongation of blood vessel was observed. The test samples enveloped were erucamide, lauramide and erucic acid, and the results compared with one another.

[3] = tested on: hen's chlorioallantoic membrane; test: CAM (Chorio Allantoic Membrane) assay; format: in vivo; details: for ED50: amount of drug which gave the numerical value 5 (positive rate) in CAM assay; for Positive rate of CAM assay: average neovascularization score (++=10, +=7, °=3, -=0), 3 days on membrane
Experimental: CAM (Chorio Allantoic Membrane) assay was conducted on various compounds of the present invention. The technique of the CAM assay was that modified somewhat on Auerbach's method [Developmental Biology, 41, 391 (1974)]. More specifically, hen's fertile eggs were incubated for three days at 37° C. (Napco carbon dioxide incubator-6300 was employed, CO2 :0% H2 O saturated). Polypropylene-made discs (6 mm. diameter) were spotted with a chloroform:ethanol (1:4 by volume) solution of each compound so that the concentration may be 0, 0.25, 0.64, 1.6, 4, 10 and 25 ug, respectively. The test materials were air-dried in a clean bench, which were then placed quietly on hen's chlorioallantoic membrane, followed by incubation at 37° C. for further three days. Then, the vascularization state was observed. In the tables, the positive rates were calculated on the following basis. Namely, degrees of neovascularization were determined as ++ for very strong, + for strong, ° for weak and - for negative, and they were numerized as 10, 7, 3 and 0, respectively. The average numerical value in each of the concentrations of the respective samples was made as positive rate. Further, the amount of the drug which gave the numerical value 5 in each sample was shown as ED50 value (ug/disc).

[4] = 30 μg test material in Elvax-40 gel in corneal pocket
[5] = amount of sample 0.64 μg per disc
[6] = amount of sample 1.6 μg per disc
[7] = amount of sample 10 μg per disc
[8] = amount of sample 25 μg per disc

CCCCCCCC/C=C\CCCCCCCCCCCC(N)=O [Erucamide]
Action of elongation of blood vessel [1, 4]: ++
elongation of blood vessels [1]: strong elongation action
blood vessel elongation action [2]: ++
blood vessel elongation ([2]; mouse dorsal air-sack): strong action of blood vessel elongation
ED50 [3]: 2.13 ug/disc
Positive rate of CAM assay [3, 5]: 1.4
Positive rate of CAM assay [3, 6]: 3.4
Positive rate of CAM assay ([3]; amount of sample 4 μg per disc): 9.4
Positive rate of CAM assay [3, 7]: 10
Positive rate of CAM assay [3, 8]: 10

CCCCCCCC/C=C\CCCCCCCCCCCC(=O)O [Erucic acid]
Action of elongation of blood vessel [1, 4]: ++
elongation of blood vessels [1]: strong elongation action
ED50 [3]: 4.69 ug/disc
Positive rate of CAM assay [3, 5]: 1.4
Positive rate of CAM assay [3, 6]: 2.8
Positive rate of CAM assay ([3]; amount of sample 4 μg per disc): 4
Positive rate of CAM assay [3, 7]: 8.2
Positive rate of CAM assay [3, 8]: 9.4

CCCCCCCCCCCC(N)=O [Lauramide, reference compound]
Action of elongation of blood vessel ([1]; 60 μg test material in Elvax-40 gel in corneal pocket): -
blood vessel elongation action [2]: -
Positive rate of CAM assay [3, 5]: 0.3
Positive rate of CAM assay [3, 6]: 0.7
Positive rate of CAM assay ([3]; amount of sample 4 μg per disc): 0
Positive rate of CAM assay [3, 7]: 0
Positive rate of CAM assay [3, 8]: 0.3

CCCCCCCC/C=C\CCCCCCCC(=O)O [Oleic acid]
ED50 [3]: 13.7 ug/disc
Positive rate of CAM assay [3, 5]: 0
Positive rate of CAM assay [3, 6]: 0.8
Positive rate of CAM assay ([3]; amount of sample 4 μg per disc): 2.5
Positive rate of CAM assay [3, 7]: 4
Positive rate of CAM assay [3, 8]: 7

CCCCCCCCCCCCCCCC(N)=O [Palmitamide]
ED50 [3]: 15.6 ug/disc
Positive rate of CAM assay [3, 5]: 0
Positive rate of CAM assay [3, 6]: 0
Positive rate of CAM assay ([3]; amount of sample 4 μg per disc): 0.3
Positive rate of CAM assay [3, 7]: 2.4
Positive rate of CAM assay [3, 8]: 7.7

CCCCCCCCCCCCCCCC(=O)O [Palmitic acid]
ED50 [3]: 14.5 ug/disc
Positive rate of CAM assay [3, 5]: 0
Positive rate of CAM assay [3, 6]: 0
Positive rate of CAM assay ([3]; amount of sample 4 μg per disc): 0
Positive rate of CAM assay [3, 7]: 3.2
Positive rate of CAM assay [3, 8]: 7.6

CCCCCC[C@@H](O)C/C=C\CCCCCCCC(=O)O [Ricinoleic acid]
Positive rate of CAM assay [3, 5]: 0
Positive rate of CAM assay [3, 6]: 1.8
Positive rate of CAM assay ([3]; amount of sample 4 μg per disc): 1.2
Positive rate of CAM assay [3, 7]: 2.6
Positive rate of CAM assay [3, 8]: 3.2

CCCCCCCCCCCCCCCCCC(N)=O [Stearamide]
ED50 [3]: 2.63 ug/disc
Positive rate of CAM assay [3, 5]: 0
Positive rate of CAM assay [3, 6]: 2
Positive rate of CAM assay ([3]; amount of sample 4 μg per disc): 7.6
Positive rate of CAM assay [3, 7]: 7.7
Positive rate of CAM assay [3, 8]: 6.9

CCCCCCCCCCCCCCCCCC(=O)O [Stearic acid]
ED50 [3]: 7.14 ug/disc
Positive rate of CAM assay [3, 5]: 0
Positive rate of CAM assay [3, 6]: 0
Positive rate of CAM assay ([3]; amount of sample 4 μg per disc): 1.8
Positive rate of CAM assay [3, 7]: 6.8
Positive rate of CAM assay [3, 8]: 9.4

CCCCCCCC/C=C\CCCCCCCCCCCC(=O)NCC(=O)O [carboxymethyl amine]
ED50 [3]: 6.58 ug/disc
Positive rate of CAM assay [3, 5]: 0
Positive rate of CAM assay [3, 6]: 0
Positive rate of CAM assay ([3]; amount of sample 4 μg per disc): 2.6
Positive rate of CAM assay [3, 7]: 7.0
Positive rate of CAM assay [3, 8]: 10

CCCCCCCC/C=C\CCCCCCCCCCCC(=O)Nc1cccc(C(=O)O)c1 [m-aminobenzoic acid, N-ercoyl-3-aminobenzoic acid]
ED50 [3]: 1.28 ug/disc
Positive rate of CAM assay [3, 5]: 2.0
Positive rate of CAM assay [3, 6]: 6.0
Positive rate of CAM assay ([3]; amount of sample 4 μg per disc): 7.4
Positive rate of CAM assay [3, 7]: 10
Positive rate of CAM assay [3, 8]: 10

CCCCCCCC/C=C\CCCCCCCCCCCC(=O)N1CCC[C@H]1C(=O)OC [proline methylester, N-erucoyl-proline methyl ester]
ED50 [3]: 4.00 ug/disc
Positive rate of CAM assay [3, 5]: 0.8
Positive rate of CAM assay [3, 6]: 2.3
Positive rate of CAM assay ([3]; amount of sample 4 μg per disc): 5.0
Positive rate of CAM assay [3, 7]: 7.8
Positive rate of CAM assay [3, 8]: 10
